From patent publication US20230031406A1, “COMPOUNDS AND COMPOSITIONS FOR TREATING CONDITIONS ASSOCIATED WITH NLRP ACTIVITY” (Novartis AG, priority 2018, published 2023)

tested on: PMA-differentiated THP-1 cells; assay: IL-1β production in PMA-differentiated THP-1 cells stimulated with gramicidin (hTHP-1 assay containing 2% fetal bovine serum; Procedures 1 and 2); assay type: cell-based, human; settings: Homo sapiens, THP-1, Table B1; 2% fetal bovine serum; class symbols; read-out: Average IC50 of compounds in hTHP-1 assay: hTHP-1 IC50
In short: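 Secreted IL-1β, read by HTRF, after gramicidin challenge (5 μM, 2 h) of THP-1 cells differentiated with PMA (20 ng/ml, 16-18 h) and plated at 50,000 cells/well in 2% FBS medium. Compounds, 0.0017-100 μM final with 0.37% DMSO, were added 1 h before stimulation.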

Row | SMILES | IC50
1 | C[C@@H]1CCc2c1nc1c(c2NC(=O)N=[S@@](N)(=O)c2cnc(C(C)(C)O)s2)CCC1 [Compound 162bb, (R,R)-2-(2-hydroxypropan-2-yl)-N′-((3-methyl-1,2,3,5,6,7-hexahydrodicyclo-penta[b,e]pyridin-8-yl)carbamoyl)thiazole-5-sulfonimidamide] | 0.04 to 0.2 µM
2 | CC(C)c1ncc(F)c(C(C)C)c1NC(=O)N=S(N)(=O)c1nc(C(C)(C)O)cs1 (centres unmarked) [Compound 163, N′-((5-fluoro-2,4-diisopropylpyridin-3-yl)carbamoyl)-4-(2-hydroxypropan-2-yl)thiazole-2-sulfonimidamide] | 0.2 to 1 µM
3 | CC(C)c1ncc(F)c(C(C)C)c1NC(=O)N=S(N)(=O)c1cnc(C(C)(C)O)s1 (centres unmarked) [Compound 164, N′-((5-fluoro-2,4-diisopropylpyridin-3-yl)carbamoyl)-2-(2-hydroxypropan-2-yl)thiazole-5-sulfonimidamide] | 1 to 5 µM
4 | Cn1nc(C(C)(C)O)cc1S(N)(=O)=NC(=O)Nc1c2c(nc3c1CCC3)CCC2 (centres unmarked) [Compound 166, N′-((1,2,3,5,6,7-hexahydrodicyclopenta[b,e]pyridin-8-yl)carbamoyl)-3-(2-hydroxypropan-2-yl)-1-methyl-1H-pyrazole-5-sulfonimidamide] | 5 to 30 µM
5 | CC(C)(O)c1cnc(S(N)(=O)=NC(=O)Nc2c3c(nc4c2CCC4)CCC3)s1 (centres unmarked) [Compound 167] | 1 to 5 µM
6 | COCc1nc(C(C)(C)O)sc1S(N)(=O)=NC(=O)Nc1c2c(nc3c1CCC3(C)C)CCC2 (centres unmarked) [Compound 170, N′-((3,3-dimethyl-1,2,3,5,6,7-hexahydrodicyclopenta[b,e]pyridin-8-yl)carbamoyl)-2-(2-hydroxypropan-2-yl)-4-(methoxymethyl)thiazole-5-sulfonimidamide] | 1 to 5 µM
7 | CC1CCc2c1nc1c(c2NC(=O)N=S(N)(=O)c2cnn(C(C)C)c2)CCC1 (centres unmarked) [Compound 171, 1-isopropyl-N′-((3-methyl-1,2,3,5,6,7-hexahydrodicyclopenta[b,e]pyridin-8-yl)carbamoyl)-1H-pyrazole-4-sulfonimidamide] | 1 to 5 µM
8 | CC(C)n1ccc(S(N)(=O)=NC(=O)Nc2c3c(nc4c2CCC42CC2)CCC3)n1 (centres unmarked) [Compound 172, 1-isopropyl-N′-((1′,5′,6′,7′-tetrahydro-2′H-spiro[cyclopropane-1,3′-dicyclopenta[b,e]pyridin]-8′-yl)carbamoyl)-1H-pyrazole-3-sulfonimidamide] | 0.2 to 1 µM
9 | CC(C)c1csc(S(N)(=O)=NC(=O)Nc2c3c(nc4c2CCC4)CCC3)c1 (centres unmarked) [Compound 173, N′-((1,2,3,5,6,7-hexahydrodicyclopenta[b,e]pyridin-8-yl)carbamoyl)-4-isopropylthiophene-2-sulfonimidamide] | 0.2 to 1 µM
10 | Cc1c(C2CC2)nc2c(c1NC(=O)N=S(N)(=O)c1sc(C(C)(C)O)cc1F)CCC2 (centres unmarked) [Compound 174, N′-((2-cyclopropyl-3-methyl-6,7-dihydro-5H-cyclopenta[b]pyridin-4-yl)carbamoyl)-3-fluoro-5-(2-hydroxypropan-2-yl)thiophene-2-sulfonimidamide] | 0.2 to 1 µM
11 | Cc1c(C2CC2)nc2c(c1NC(=O)N=S(N)(=O)c1cc(C(C)(C)O)cs1)CCC2 (centres unmarked) [Compound 175, N′-((2-cyclopropyl-3-methyl-6,7-dihydro-5H-cyclopenta[b]pyridin-4-yl)carbamoyl)-4-(2-hydroxypropan-2-yl)thiophene-2-sulfonimidamide] | 0.2 to 1 µM
12 | CC(C)(O)c1csc(S(N)(=O)=NC(=O)Nc2cc(C3CC3)nc3c2CCC3)c1 (centres unmarked) [Compound 176, N′-((2-cyclopropyl-6,7-dihydro-5H-cyclopenta[b]pyridin-4-yl)carbamoyl)-4-(2-hydroxypropan-2-yl)thiophene-2-sulfonimidamide] | 5 to 30 µM
13 | CC(C)(O)c1sc(S(N)(=O)=NC(=O)Nc2c3c(nc4c2CCC4)CCC3)cc1F (centres unmarked) [Compound 177, 4-fluoro-N′-((1,2,3,5,6,7-hexahydrodicyclopenta[b,e]pyridin-8-yl)carbamoyl)-5-(2-hydroxypropan-2-yl)thiophene-2-sulfonimidamide] | 5 to 30 µM
14 | CC(C)(O)c1ncc(S(N)(=O)=NC(=O)Nc2c3c(nc4c2CCC4O)CCC3)s1 (centres unmarked) [Compound 178, N′-((3-hydroxy-1,2,3,5,6,7-hexahydrodicyclopenta[b,e]pyridin-8-yl)carbamoyl)-2-(2-hydroxypropan-2-yl)thiazole-5-sulfonimidamide] | 5 to 30 µM
15 | CC(C)c1nc(C(F)(F)F)nc(C(C)C)c1NC(=O)N=S(N)(=O)c1sc(C(C)(C)O)nc1CO (centres unmarked) [Compound 179, N′-((4,6-diisopropyl-2-(trifluoromethyl)pyrimidin-5-yl)carbamoyl)-4-(hydroxymethyl)-2-(2-hydroxypropan-2-yl)thiazole-5-sulfonimidamide] | 1 to 5 µM
16 | NS(=O)(=NC(=O)Nc1c2c(nc3c1CCC31CC1)CCC2)c1ccn(C(F)F)n1 (centres unmarked) [Compound 180, 1-(difluoromethyl)-N′-((1′,5′,6′,7′-tetrahydro-2′H-spiro[cyclopropane-1,3′-dicyclopenta[b,e]pyridin]-8′-yl)carbamoyl)-1H-pyrazole-3-sulfonimidamide] | 1 to 5 µM
17 | CCc1c(C2CC2)nc2c(c1NC(=O)N=S(N)(=O)c1cc(C(C)(C)O)cs1)CCC2 (centres unmarked) [Compound 181, N′-((2-cyclopropyl-3-ethyl-6,7-dihydro-5H-cyclopenta[b]pyridin-4-yl)carbamoyl)-4-(2-hydroxypropan-2-yl)thiophene-2-sulfonimidamide] | 0.2 to 1 µM

same assay, conditions: Homo sapiens, THP-1, Table B1; 2% fetal bovine serum; numeric bounds; read-out: Average IC50 of compounds in hTHP-1 assay: hTHP-1 IC50

Row | SMILES | IC50
18 | CC(C)c1cc(NC(=O)N=S(N)(=O)c2cc(C(C)(C)O)cs2)c2c(n1)CCC2 (centres unmarked) [Compound 182, 4-(2-hydroxypropan-2-yl)-N′-((2-isopropyl-6,7-dihydro-5H-cyclopenta[b]pyridin-4-yl)carbamoyl)thiophene-2-sulfonimidamide] | > 14 µM
19 | Cc1cc(C2CC2)nc(NC(=O)N=S(N)(=O)c2ncc(C(C)(C)O)s2)n1 (centres unmarked) [Compound 185, N′-((4-cyclopropyl-6-methylpyrimidin-2-yl)carbamoyl)-5-(2-hydroxypropan-2-yl)thiazole-2-sulfonimidamide] | > 30 µM

same assay, conditions: Homo sapiens, THP-1, Table B2; 2% fetal bovine serum; class symbols; read-out: hTHP-1 IC50

Row | SMILES | IC50
20 | CC1(C)CCc2c1nc1c(c2NC(=O)N=S(N)(=O)c2cnn3c2OCCC3)CCC1 (centres unmarked) [Compound 304, N′-((3,3-dimethyl-1,2,3,5,6,7-hexahydrodicyclopenta[b,e]pyridin-8-yl)carbamoyl)-6,7-dihydro-5H-pyrazolo[5,1-b][1,3]oxazine-3-sulfonimidamide] | 1 to 5 µM
21 | Cc1c(C2CC2)nc2c(c1NC(=O)N=S(N)(=O)c1cnn3c1OCCC3)CCC2 (centres unmarked) [Compound 306, N′-((2-cyclopropyl-3-methyl-6,7-dihydro-5H-cyclopenta[b]pyridin-4-yl)carbamoyl)-6,7-dihydro-5H-pyrazolo[5,1-b][1,3]oxazine-3-sulfonimidamide] | 5 to 30 µM
22 | CC(C)c1nc2c(cc1NC(=O)N=S(N)(=O)c1cnc(C(C)(C)O)s1)CCC2 (centres unmarked) [Compound 601, 2-(2-Hydroxypropan-2-yl)-N′-((2-isopropyl-6,7-dihydro-5H-cyclopenta[b]pyridin-3-yl)carbamoyl)thiazole-5-sulfonimidamide] | 5 to 30 µM
23 | CC(C)c1nc2c(cc1NC(=O)N=[S@](N)(=O)c1cnc(C(C)(C)O)s1)CCC2 [Compound 601a] | 0.2 to 1 µM
24 | CC(C)c1nc2c(cc1NC(=O)N=[S@@](N)(=O)c1cnc(C(C)(C)O)s1)CCC2 [Compound 601b] | 5 to 30 µM
25 | CC(C)(O)c1cc(F)c(S(N)(=O)=NC(=O)Nc2cc(CC(F)(F)F)nc3c2CCC3)s1 (centres unmarked) [Compound 602, 3-Fluoro-5-(2-hydroxypropan-2-yl)-N′-((2-(2,2,2-trifluoroethyl)-6,7-dihydro-5H-cyclopenta[b]pyridin-4-yl)carbamoyl)thiophene-2-sulfonimidamide] | 1 to 5 µM

same assay, conditions: Homo sapiens, THP-1, Table B2; 2% fetal bovine serum; numeric bounds; read-out: hTHP-1 IC50

Row | SMILES | IC50
26 | Cc1cc(C2CC2)nc(NC(=O)N=S(N)(=O)c2ncc(C(C)(C)O)s2)n1 (centres unmarked) [Compound 185, N′-((4-cyclopropyl-6-methylpyrimidin-2-yl)carbamoyl)-5-(2-hydroxypropan-2-yl)thiazole-2-sulfonimidamide] | > 30 µM

same assay, conditions: Table B1; 2% fetal bovine serum; class symbols; read-out: Average IC50 of compounds in hTHP-1 assay: hTHP-1 IC50

Row | SMILES | IC50
27 | C[C@H]1CCc2c1nc1c(c2NC(=O)N=[S@@](N)(=O)c2cnc(C(C)(C)O)s2)CCC1 [Compound 162ba, (R,S)-2-(2-hydroxypropan-2-yl)-N′-((3-methyl-1,2,3,5,6,7-hexahydrodicyclo-penta[b,e]pyridin-8-yl)carbamoyl)thiazole-5-sulfonimidamide] | 0.2 to 1 µM
28 | CC(C)c1ncc(F)c(C(C)C)c1NC(=O)N=S(N)(=O)c1ncc(C(C)(C)O)s1 (centres unmarked) [Compound 165, N′-((5-fluoro-2,4-diisopropylpyridin-3-yl)carbamoyl)-5-(2-hydroxypropan-2-yl)thiazole-2-sulfonimidamide] | 1 to 5 µM
29 | CC(C)c1ncc(F)c(C(C)C)c1NC(=O)N=S(N)(=O)c1ncc(C(C)(C)O)s1 [Compound 165a, (R)- and (S)-N′-((5-fluoro-2,4-diisopropylpyridin-3-yl)carbamoyl)-5-(2-hydroxypropan-2-yl)thiazole-2-sulfonimidamide] | 0.2 to 1 µM
30 | CC1CCc2c1nc1c(c2NC(=O)N=S(N)(=O)c2sc(C(C)(C)O)nc2CO)CCC1 (centres unmarked) [Compound 168, 4-(hydroxymethyl)-2-(2-hydroxypropan-2-yl)-N′-((3-methyl-1,2,3,5,6,7-hexahydrodicyclopenta[b,e]pyridin-8-yl)carbamoyl)thiazole-5-sulfonimidamide] | 0.2 to 1 µM
31 | CC(C)(O)c1ncc(S(N)(=O)=NC(=O)Nc2c3c(nc4c2CCC4F)CCC3)s1 (centres unmarked) [Compound 183, N′-((3-fluoro-1,2,3,5,6,7-hexahydrodicyclopenta[b,e]pyridin-8-yl)carbamoyl)-2-(2-hydroxypropan-2-yl)thiazole-5-sulfonimidamide] | 5 to 30 µM

same assay, conditions: Table B2; 2% fetal bovine serum; class symbols; read-out: hTHP-1 IC50

Row | SMILES | IC50
32 | CC1(C)CCc2c1nc1c(c2NC(=O)N=S(N)(=O)c2cnc(C(C)(O)CO)s2)CCC1 (centres unmarked) [Compound 201, 2-(1,2-Dihydroxypropan-2-yl)-N′-((3,3-dimethyl-1,2,3,5,6,7-hexahydrodicyclopenta [b,e]pyridin-8-yl)carbamoyl)thiazole-5-sulfonimidamide] | 0.2 to 1 µM
